Laboratory results published in the supplement of paper PMC8617591.

Assays:
[1] = test system: Mycobacterium tuberculosis Erdman (autoluminescent); experiment: total FIC50 (Loewe) at 50% inhibition, three-drug combination (log2); higher = more antagonistic
Experimental: (§1)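 DiaMOND equipotent three-drug combination dose responses (10 doses, 1.5- or 2-fold spacing, centred on IC90) against autoluminescent M. tuberculosis Erdman in 8 in vitro models. Read-out is OD600, or luminescence for the intracellular and dormancy models, normalised to untreated wells. Hill-fit Einf, AUC25 and GRinf are potency metrics; FIC50 and FIC90 are total Loewe fractional inhibitory concentrations as log2 (negative = synergy).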

[2] = test system: Mycobacterium tuberculosis Erdman (autoluminescent); experiment: total FIC90 (Loewe) at 90% inhibition, three-drug combination (log2); higher = more antagonistic
Experimental: as §1

[3] = test system: Mycobacterium tuberculosis Erdman (autoluminescent); experiment: Einf, fitted maximum growth inhibition of three-drug combination (fraction); higher = stronger maximal inhibition
Experimental: as §1

[4] = test system: Mycobacterium tuberculosis Erdman (autoluminescent); experiment: AUC25, normalised area under dose response up to IC25 (three-drug combination) (fraction (0-1)); higher = more potent at low dose
Experimental: as §1

[5] = test system: Mycobacterium tuberculosis Erdman (autoluminescent); experiment: GRinf, maximum normalised growth rate inhibition (three-drug combination) (unitless (-1 to 1)); higher = less effect (negative = killing)
Experimental: as §1

[6] = in vitro model: acidic pH 5.7, time point: constant (~7 days, model-specific)
[7] = in vitro model: acidic pH 5.7, time point: terminal (~4-5 doublings, model-specific)
[8] = in vitro model: butyrate, time point: constant (~7 days, model-specific)
[9] = in vitro model: butyrate, time point: terminal (~4-5 doublings, model-specific)
[10] = in vitro model: cholesterol 0.05 mM, time point: constant (~7 days, model-specific)
[11] = in vitro model: cholesterol 0.05 mM, time point: terminal (~4-5 doublings, model-specific)
[12] = in vitro model: cholesterol-high 0.2 mM, time point: constant (~7 days, model-specific)
[13] = in vitro model: cholesterol-high 0.2 mM, time point: terminal (~4-5 doublings, model-specific)
[14] = in vitro model: dormancy (butyrate + nitrate, low O2), time point: constant (~7 days, model-specific)
[15] = in vitro model: dormancy (butyrate + nitrate, low O2), time point: terminal (~4-5 doublings, model-specific)
[16] = in vitro model: standard 7H9 glycerol, time point: constant = terminal
[17] = in vitro model: valerate, time point: constant (~7 days, model-specific)
[18] = in vitro model: valerate, time point: terminal (~4-5 doublings, model-specific)
[19] = in vitro model: intracellular J774, time point: constant = terminal

COc1nc2ccc(Br)cc2cc1[C@@H](c1ccccc1)[C@@](O)(CCN(C)C)c1cccc2ccccc12 [bedaquiline] + CC(C)/N=c1\cc2n(-c3ccc(Cl)cc3)c3ccccc3nc-2cc1Nc1ccc(Cl)cc1 [clofazimine] + COc1c(N2C[C@@H]3CCCN[C@@H]3C2)c(F)cc2c(=O)c(C(=O)O)cn(C3CC3)c12 [moxifloxacin]
total FIC50 [1, 6]: 1.07
total FIC50 [1, 7]: 0.792
total FIC50 [1, 8]: -0.0983
total FIC50 [1, 9]: 0.0193
total FIC50 [1, 10]: -0.685
total FIC50 [1, 11]: 0.399
total FIC50 [1, 12]: -0.248
total FIC50 [1, 13]: 0.0978
total FIC50 [1, 14]: -0.202
total FIC50 [1, 15]: -0.168
total FIC50 [1, 16]: -0.176
total FIC50 [1, 17]: 0.443
total FIC50 [1, 18]: 0.482
total FIC90 [2, 7]: 0.0494
total FIC90 [2, 8]: -0.596
total FIC90 [2, 9]: -0.388
total FIC90 [2, 11]: -1.01
total FIC90 [2, 12]: 0.136
total FIC90 [2, 13]: -0.0166
total FIC90 [2, 14]: -0.9
total FIC90 [2, 15]: 0.176
total FIC90 [2, 19]: 0.0395
total FIC90 [2, 16]: -0.548
total FIC90 [2, 18]: 1.71
Einf [3, 6]: 0.698
Einf [3, 7]: 0.957
Einf [3, 8]: 0.95
Einf [3, 9]: 0.979
Einf [3, 10]: 0.724
Einf [3, 11]: 0.927
Einf [3, 12]: 0.97
Einf [3, 13]: 1
Einf [3, 14]: 0.907
Einf [3, 15]: 0.997
Einf [3, 19]: 0.974
Einf [3, 16]: 0.983
Einf [3, 17]: 0.959
Einf [3, 18]: 0.968
AUC25 [4, 6]: 0.0874
AUC25 [4, 7]: 0.0681
AUC25 [4, 8]: 0.0682
AUC25 [4, 9]: 0.0514
AUC25 [4, 10]: 0.0732
AUC25 [4, 11]: 0.0839
AUC25 [4, 12]: 0.094
AUC25 [4, 13]: 0.0879
AUC25 [4, 14]: 0.0734
AUC25 [4, 15]: 0.0897
AUC25 [4, 16]: 0.0896
AUC25 [4, 17]: 0.121
AUC25 [4, 18]: 0.0856
GRinf [5, 6]: -0.457
GRinf [5, 7]: -0.368
GRinf [5, 8]: -0.111
GRinf [5, 9]: -0.117
GRinf [5, 10]: -0.218
GRinf [5, 11]: -0.23
GRinf [5, 12]: -0.382
GRinf [5, 13]: -0.535
GRinf [5, 14]: 0.241
GRinf [5, 15]: -0.093
GRinf [5, 19]: -0.345
GRinf [5, 16]: -0.156
GRinf [5, 17]: -0.201
GRinf [5, 18]: -0.1

COc1nc2ccc(Br)cc2cc1[C@@H](c1ccccc1)[C@@](O)(CCN(C)C)c1cccc2ccccc12 [bedaquiline] + CC(C)/N=c1\cc2n(-c3ccc(Cl)cc3)c3ccccc3nc-2cc1Nc1ccc(Cl)cc1 [clofazimine] + NC(=O)c1cnccn1 [pyrazinamide]
total FIC50 [1, 6]: 0.0846
total FIC50 [1, 7]: 0.193
total FIC50 [1, 8]: -0.624
total FIC50 [1, 9]: -0.595
total FIC50 [1, 11]: 0.513
total FIC50 [1, 12]: -0.0552
total FIC50 [1, 13]: 0.345
total FIC50 [1, 14]: -1.18
total FIC50 [1, 15]: -0.97
total FIC50 [1, 16]: -0.389
total FIC50 [1, 17]: 0.388
total FIC50 [1, 18]: 0.415
total FIC90 [2, 7]: -0.409
total FIC90 [2, 8]: -0.916
total FIC90 [2, 9]: -1.03
total FIC90 [2, 13]: -0.162
total FIC90 [2, 14]: -1.48
total FIC90 [2, 15]: -1.37
total FIC90 [2, 19]: -0.109
total FIC90 [2, 18]: 0.773
Einf [3, 6]: 0.862
Einf [3, 7]: 0.968
Einf [3, 8]: 0.946
Einf [3, 9]: 0.977
Einf [3, 10]: 0.732
Einf [3, 11]: 0.939
Einf [3, 12]: 0.921
Einf [3, 13]: 1
Einf [3, 14]: 0.924
Einf [3, 15]: 0.991
Einf [3, 19]: 0.963
Einf [3, 16]: 0.961
Einf [3, 17]: 0.884
Einf [3, 18]: 0.929
AUC25 [4, 6]: 0.0929
AUC25 [4, 7]: 0.074
AUC25 [4, 8]: 0.0756
AUC25 [4, 9]: 0.0582
AUC25 [4, 10]: 0.0812
AUC25 [4, 11]: 0.0926
AUC25 [4, 12]: 0.06
AUC25 [4, 13]: 0.0776
AUC25 [4, 14]: 0.0795
AUC25 [4, 15]: 0.0671
AUC25 [4, 16]: 0.0904
AUC25 [4, 17]: 0.103
AUC25 [4, 18]: 0.0692
GRinf [5, 6]: -0.349
GRinf [5, 7]: -0.284
GRinf [5, 8]: -0.0789
GRinf [5, 9]: -0.0813
GRinf [5, 10]: -0.17
GRinf [5, 11]: -0.225
GRinf [5, 12]: -0.227
GRinf [5, 13]: -0.556
GRinf [5, 14]: 0.201
GRinf [5, 15]: -0.181
GRinf [5, 19]: -0.197
GRinf [5, 16]: -0.0928
GRinf [5, 17]: 0.0304
GRinf [5, 18]: 0.0196

COc1nc2ccc(Br)cc2cc1[C@@H](c1ccccc1)[C@@](O)(CCN(C)C)c1cccc2ccccc12 [bedaquiline] + CC(C)/N=c1\cc2n(-c3ccc(Cl)cc3)c3ccccc3nc-2cc1Nc1ccc(Cl)cc1 [clofazimine] + NNC(=O)c1ccncc1 [isoniazid]
total FIC50 [1, 6]: 0.675
total FIC50 [1, 7]: 0.356
total FIC50 [1, 8]: -0.0224
total FIC50 [1, 9]: -0.00128
total FIC50 [1, 10]: -0.55
total FIC50 [1, 11]: 0.444
total FIC50 [1, 12]: 0.226
total FIC50 [1, 13]: 0.648
total FIC50 [1, 14]: 0.0126
total FIC50 [1, 15]: -0.283
total FIC50 [1, 16]: -0.294
total FIC50 [1, 17]: 0.133
total FIC50 [1, 18]: 0.246
total FIC90 [2, 7]: 0.616
total FIC90 [2, 8]: -0.194
total FIC90 [2, 9]: -0.306
total FIC90 [2, 11]: -0.22
total FIC90 [2, 12]: 0.206
total FIC90 [2, 13]: 0.259
total FIC90 [2, 14]: -0.362
total FIC90 [2, 15]: -0.303
total FIC90 [2, 19]: -0.134
total FIC90 [2, 16]: -0.677
total FIC90 [2, 17]: -0.379
total FIC90 [2, 18]: 0.504
Einf [3, 6]: 0.842
Einf [3, 7]: 0.969
Einf [3, 8]: 0.945
Einf [3, 9]: 0.979
Einf [3, 10]: 0.724
Einf [3, 11]: 0.933
Einf [3, 12]: 0.955
Einf [3, 13]: 1
Einf [3, 14]: 0.911
Einf [3, 15]: 0.991
Einf [3, 19]: 0.96
Einf [3, 16]: 0.97
Einf [3, 17]: 0.903
Einf [3, 18]: 0.948
AUC25 [4, 6]: 0.11
AUC25 [4, 7]: 0.09
AUC25 [4, 8]: 0.0622
AUC25 [4, 9]: 0.0523
AUC25 [4, 10]: 0.0812
AUC25 [4, 11]: 0.0932
AUC25 [4, 12]: 0.0765
AUC25 [4, 13]: 0.0685
AUC25 [4, 14]: 0.0746
AUC25 [4, 15]: 0.0741
AUC25 [4, 16]: 0.0945
AUC25 [4, 17]: 0.109
AUC25 [4, 18]: 0.0654
GRinf [5, 6]: -0.379
GRinf [5, 7]: -0.293
GRinf [5, 8]: -0.1
GRinf [5, 9]: -0.119
GRinf [5, 10]: -0.209
GRinf [5, 11]: -0.263
GRinf [5, 12]: -0.396
GRinf [5, 13]: -0.54
GRinf [5, 14]: 0.317
GRinf [5, 15]: -0.0967
GRinf [5, 19]: -0.447
GRinf [5, 16]: -0.0956
GRinf [5, 17]: -0.0916
GRinf [5, 18]: -0.0502
